Measured values as given in US20250171430A1, “PYRAZOLYL COMPOUNDS AS KV7 CHANNEL ACTIVATORS” (Biohaven Therapeutics Ltd., priority 2022, published 2025).

Target: T1, Kv7.2/7.3 (Homo sapiens, UniProt O43525+O43526)
T1 construct: Kv7.2 tetracycline-induced, Kv7.3 constitutive
Assay: Kv7.2/7.3 Activation Assay (Thallium Flux Assay)
Format: cell-based
Settings: hKV7.2/7.3 cell line; test compound at single concentration of 10 μM; fluorescence at 90 sec normalized to positive control (retigabine, 30 μM)
Summary of the method: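 Single-point activity at 10 μM (0.1% DMSO, HEPES-buffered saline, pH 7.4) was scored from fluorescence at 90 s relative to 30 μM retigabine. Categories were none <0.15, moderate 0.15-0.7 and high >0.7. Thallium influx after stimulus addition was followed with FluxOR II Green dye in hKv7.2/7.3 cells, Kv7.2 expressed under overnight tetracycline (10 ng/mL) induction.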

Structure (SMILES) | Kv7.2/7.3 Activity
Cn1nc(NC(=O)C2CSC2)c(C2CCC2)c1-c1ccc(Cl)s1 [Compound 248, N-(5-(5-chlorothiophen-2-yl)-4-cyclobutyl-1-methyl-1H-pyrazol-3-yl)thietane-3-carboxamide] | ++ (“++” High Activity ≥ 0.7)
Cn1nc(NC(=O)C2CC3(C2)CC(F)(F)C3)c(C2CCC2)c1-c1ccc(Cl)s1 [Compound 249, N-(5-(5-chlorothiophen-2-yl)-4-cyclobutyl-1-methyl-1H-pyrazol-3-yl)-6,6-difluorospiro[3.3]heptane-2-carboxamide] | ++ (“++” High Activity ≥ 0.7)
Cn1nc(NC(=O)CC2CC(F)(F)C2)c(C2CCC2)c1-c1ccc(Cl)c(F)c1 [Compound 250, N-(5-(4-chloro-3-fluorophenyl)-4-cyclobutyl-1-methyl-1H-pyrazol-3-yl)-2-(3,3-difluorocyclobutyl)acetamide] | ++ (“++” High Activity ≥ 0.7)
Cn1nc(NC(=O)NCC(C)(C)C)c(C2CCC2)c1-c1ccc(F)cc1 [Compound 251, 1-(4-cyclobutyl-5-(4-fluorophenyl)-1-methyl-1H-pyrazol-3-yl)-3-neopentylurea] | + (“+” Moderate Activity 0.15-0.7)
Cn1nc(NC(=O)NC2(C)COC2)c(C2CCC2)c1-c1ccc(F)cc1 [Compound 252, 1-(4-cyclobutyl-5-(4-fluorophenyl)-1-methyl-1H-pyrazol-3-yl)-3-(3-methyloxetan-3-yl)urea] | + (“+” Moderate Activity 0.15-0.7)
Cn1nc(NC(=O)[C@@H]2C[C@@H]2F)c(C2CCC2)c1-c1ccc(F)cc1 [Compound 253, (1S,2S)-N-(4-cyclobutyl-5-(4-fluorophenyl)-1-methyl-1H-pyrazol-3-yl)-2-fluorocyclopropane-1-carboxamide] | − (“−” No Activity < 0.15)
Cn1nc(NC(=O)C[C@@H]2CC(F)(F)C2(F)F)c(C2CCC2)c1-c1ccc(F)cn1 [Compound 254, (R)-N-(4-cyclobutyl-5-(5-fluoropyridin-2-yl)-1-methyl-1H-pyrazol-3-yl)-2-(2,2,3,3-tetrafluorocyclobutyl)acetamide] | ++ (“++” High Activity ≥ 0.7)
Cn1nc(NC(=O)C2CC(F)(F)C2)c(C2CCC2)c1-c1cc(F)cc(F)c1 [Compound 255, N-(4-cyclobutyl-5-(3,5-difluorophenyl)-1-methyl-1H-pyrazol-3-yl)-3,3-difluorocyclobutane-1-carboxamide] | ++ (“++” High Activity ≥ 0.7)
Cn1nc(NC(=O)C[C@@H]2CC(F)(F)C2(F)F)c(C2CCC2)c1-c1cc(F)cc(F)c1 [Compound 256, (R)-N-(4-cyclobutyl-5-(3,5-difluorophenyl)-1-methyl-1H-pyrazol-3-yl)-2-(2,2,3,3-tetrafluorocyclobutyl)acetamide] | ++ (“++” High Activity ≥ 0.7)
Cn1nc(NC(=O)C2CSC2)c(C2CCC2)c1-c1cc(F)cc(F)c1 [Compound 257, N-(4-cyclobutyl-5-(3,5-difluorophenyl)-1-methyl-1H-pyrazol-3-yl)thietane-3-carboxamide] | ++ (“++” High Activity ≥ 0.7)
Cn1nc(NC(=O)CC2CC(F)(F)C2)c(C2CCC2)c1-c1cc(F)cc(F)c1 [Compound 258, N-(4-cyclobutyl-5-(3,5-difluorophenyl)-1-methyl-1H-pyrazol-3-yl)-2-(3,3-difluorocyclobutyl)acetamide] | ++ (“++” High Activity ≥ 0.7)
Cn1nc(NC(=O)CC2(C(F)F)CC2)c(C2CCC2)c1-c1cc(F)cc(F)c1 [Compound 259, N-(4-cyclobutyl-5-(3,5-difluorophenyl)-1-methyl-1H-pyrazol-3-yl)-2-(1-(difluoromethyl)cyclopropyl)acetamide] | ++ (“++” High Activity ≥ 0.7)
Cn1nc(NC(=O)OC2CC(F)(F)C2)c(C2CCC2)c1-c1ccc(Cl)c(F)c1 [Compound 260, 3,3-difluorocyclobutyl (5-(4-chloro-3-fluorophenyl)-4-cyclobutyl-1-methyl-1H-pyrazol-3-yl)carbamate] | ++ (“++” High Activity ≥ 0.7)
Cn1nc(NC(=O)C2CC(F)(F)C2)c(C2CCC2)c1-c1cc(F)c(F)c(F)c1 [Compound 261, N-(4-cyclobutyl-1-methyl-5-(3,4,5-trifluorophenyl)-1H-pyrazol-3-yl)-3,3-difluorocyclobutane-1-carboxamide] | ++ (“++” High Activity ≥ 0.7)
Cn1nc(NC(=O)C[C@@H]2CC(F)(F)C2(F)F)c(C2CCC2)c1-c1cc(F)c(F)c(F)c1 [Compound 262, (R)-N-(4-cyclobutyl-1-methyl-5-(3,4,5-trifluorophenyl)-1H-pyrazol-3-yl)-2-(2,2,3,3-tetrafluorocyclobutyl)acetamide] | ++ (“++” High Activity ≥ 0.7)

More lines, now with the values ahead:

Kv7.2/7.3 Activity | Structure (SMILES)
++ (“++” High Activity ≥ 0.7) | Cn1nc(NC(=O)C2CSC2)c(C2CCC2)c1-c1cc(F)c(F)c(F)c1 [Compound 263, N-(4-cyclobutyl-1-methyl-5-(3,4,5-trifluorophenyl)-1H-pyrazol-3-yl)thietane-3-carboxamide]
++ (“++” High Activity ≥ 0.7) | Cn1nc(NC(=O)CC2CC(F)(F)C2)c(C2CCC2)c1-c1cc(F)c(F)c(F)c1 [Compound 264, N-(4-cyclobutyl-1-methyl-5-(3,4,5-trifluorophenyl)-1H-pyrazol-3-yl)-2-(3,3-difluorocyclobutyl)acetamide]
++ (“++” High Activity ≥ 0.7) | Cn1nc(NC(=O)CC2(C(F)F)CC2)c(C2CCC2)c1-c1cc(F)c(F)c(F)c1 [Compound 265, N-(4-cyclobutyl-1-methyl-5-(3,4,5-trifluorophenyl)-1H-pyrazol-3-yl)-2-(1-(difluoromethyl)cyclopropyl)acetamide]
++ (“++” High Activity ≥ 0.7) | Cn1nc(NC(=O)C[C@H]2CC(F)(F)C2(F)F)c(C2CCC2)c1-c1cc(F)cc(F)c1 [Compound 266, (S)-N-(4-cyclobutyl-5-(3,5-difluorophenyl)-1-methyl-1H-pyrazol-3-yl)-2-(2,2,3,3-tetrafluorocyclobutyl)acetamide]
++ (“++” High Activity ≥ 0.7) | C[C@@H](C(=O)Nc1nn(C)c(-c2cc(F)cc(F)c2)c1C1CCC1)C1CC(F)(F)C1 [Compound 267, (R)-N-(4-cyclobutyl-5-(3,5-difluorophenyl)-1-methyl-1H-pyrazol-3-yl)-2-(3,3-difluorocyclobutyl)propanamide]
+ (“+” Moderate Activity 0.15-0.7) | C[C@H](C(=O)Nc1nn(C)c(-c2cc(F)cc(F)c2)c1C1CCC1)C1CC(F)(F)C1 [Compound 268, (S)-N-(4-cyclobutyl-5-(3,5-difluorophenyl)-1-methyl-1H-pyrazol-3-yl)-2-(3,3-difluorocyclobutyl)propanamide]
++ (“++” High Activity ≥ 0.7) | Cn1nc(NC(=O)OC2CC(F)(F)C2)c(C2CCC2)c1-c1cc(F)cc(F)c1 [Compound 269, 3,3-difluorocyclobutyl (4-cyclobutyl-5-(3,5-difluorophenyl)-1-methyl-1H-pyrazol-3-yl)carbamate]
++ (“++” High Activity ≥ 0.7) | Cn1nc(NC(=O)NC2CC(F)(F)C2)c(C2CCC2)c1-c1cc(F)cc(F)c1 [Compound 270, 1-(4-cyclobutyl-5-(3,5-difluorophenyl)-1-methyl-1H-pyrazol-3-yl)-3-(3,3-difluorocyclobutyl)urea]
+ (“+” Moderate Activity 0.15-0.7) | Cc1cccc(-c2c(NC(=O)C3CC(F)(F)C3)nn(C)c2C2CC(F)(F)C2)c1 [Compound 271, N-(5-(3,3-difluorocyclobutyl)-1-methyl-4-(m-tolyl)-1H-pyrazol-3-yl)-3,3-difluorocyclobutane-1-carboxamide]
+ (“+” Moderate Activity 0.15-0.7) | Cn1nc(NC(=O)C2CC(F)(F)C2)c(C2CCC2)c1-c1ccc(OC(F)F)nc1 [Compound 272, N-(4-cyclobutyl-5-(6-(difluoromethoxy)pyridin-3-yl)-1-methyl-1H-pyrazol-3-yl)-3,3-difluorocyclobutane-1-carboxamide]
++ (“++” High Activity ≥ 0.7) | Cn1nc(NC(=O)C[C@@H]2CC(F)(F)C2(F)F)c(C2CCC2)c1C1CCC(F)(F)CC1 [Compound 273, (R)-N-(4-cyclobutyl-5-(4,4-difluorocyclohexyl)-1-methyl-1H-pyrazol-3-yl)-2-(2,2,3,3-tetrafluorocyclobutyl)acetamide]
++ (“++” High Activity ≥ 0.7) | Cn1nc(NC(=O)OC2CC(F)(F)C2)c(C2CCC2)c1C1CC(F)(F)C1 [Compound 274, 3,3-difluorocyclobutyl (4-cyclobutyl-5-(3,3-difluorocyclobutyl)-1-methyl-1H-pyrazol-3-yl)carbamate]
− (“−” No Activity < 0.15) | Cn1nc(NC(=O)C2COC2)c(C2CCC2)c1-c1cc(F)c(F)c(F)c1 [Compound 275, N-(4-cyclobutyl-1-methyl-5-(3,4,5-trifluorophenyl)-1H-pyrazol-3-yl)oxetane-3-carboxamide]
+ (“+” Moderate Activity 0.15-0.7) | Cn1nc(NC(=O)C2COC2)c(C2CCC2)c1-c1ccc(Cl)s1 [Compound 276, N-(5-(5-chlorothiophen-2-yl)-4-cyclobutyl-1-methyl-1H-pyrazol-3-yl)oxetane-3-carboxamide]
+ (“+” Moderate Activity 0.15-0.7) | Cn1nc(NC(=O)NC2CC(F)(F)C2)c(C2CCC2)c1-c1ccc(C(F)(F)F)cc1 [Compound 277, 1-(4-cyclobutyl-1-methyl-5-(4-(trifluoromethyl)phenyl)-1H-pyrazol-3-yl)-3-(3,3-difluorocyclobutyl)urea]
− (“−” No Activity < 0.15) | Cn1nc(NC(=O)C2COC2)c(C2CCC2)c1-c1ccc(F)c(F)c1 [Compound 278, N-(4-cyclobutyl-5-(3,4-difluorophenyl)-1-methyl-1H-pyrazol-3-yl)oxetane-3-carboxamide]
